# System: retinal epithelial progenitor cells
# Assay: Derivation of retinal pigmented epithelium from hPSCs in 3D culture
# Format: cell-based, human
# Settings: hPSC 3D cultures, N2/B27 medium containing Chir99021 (3 μM) for 15 days, after 12 days SB431542, IWR-1, DMH-1, Y-27632
# Experimental: hPSCs cells growing under feeder-free culture conditions were dissociated with Accutase and grown in suspension in Ultra-low 6 well plates, with N2/B27 medium (DMEM/F12 with GlutaMAX, 1× N2/B27 Supplement) plus SB431542 (10 μM), IWR-1 (3 μM), DMH-1 (2 μM), and Y-27632 (10 μM) for 12 days (FIGS. 1A-1C) to generate retinal epithelial progenitor cells. After 12 days, to differentiate the retinal epithelial progenitor cells into retinal pigmented epithelium into RPEs, hPSC 3D cultures were switch into N2/B27 medium containing Chir99021 (3 μM) for 15 days (FIGS. 1A-1C and 2). […] Derivation of RPEs was confirmed by immunohistochemistry for RPE specific protein expression (MITF, ZO-1, Best-1 and Melanosome) and by RT-PCR gene analysis for RPE specific gene markers ([…], BEST1 OTX2, RLBP1, RPE65 and SERINF1) (FIGS. 3 and 4). FACS analysis was performed to determine the percentage of cells positive for RPE specific proteins MITF, Mel and BEST (FIGS. 5A-5C).
structure (smiles),measurement,value
Cc1c[nH]c(-c2cnc(NCCNc3ccc(C#N)cn3)nc2-c2ccc(Cl)cc2Cl)n1 [Chir99021],maturation/pigmentation of retinal epithelial progenitor cells,promotes the maturation/pigmentation of retinal epithelial progenitor cells

# — patent US20200024573A1, “CHEMICAL DIFFERENTIATION OF PLURIPOTENT STEM CELLS INTO RETINAL EPITHELIAL CELLS” (International Stem Cell Corporation, priority 2014, published 2020)
